How the values were obtained:
A2M (α2-macroglobulin) = target: T1, A2M (α2-macroglobulin) (Homo sapiens, UniProt P01023, N1088H); test: LC-MS/MS PRM of the pepsin-digested thiol ester peptide conjugate; assay type: biochemical; conditions: covalent ester at thiol ester Gln-975; recombinant A2M activated by chymotrypsin; 200 mM glycerol, HBS pH 7.4, 37 °C
T1 construct: WT purified from plasma; N1088H recombinant from HEK293 cells (gene based on mRNA M11311), native form enriched by LRP1 depletion; tetramer; cleaved by chymotrypsin in the assay
T1 sequence (P01023 24-1474 N1088H): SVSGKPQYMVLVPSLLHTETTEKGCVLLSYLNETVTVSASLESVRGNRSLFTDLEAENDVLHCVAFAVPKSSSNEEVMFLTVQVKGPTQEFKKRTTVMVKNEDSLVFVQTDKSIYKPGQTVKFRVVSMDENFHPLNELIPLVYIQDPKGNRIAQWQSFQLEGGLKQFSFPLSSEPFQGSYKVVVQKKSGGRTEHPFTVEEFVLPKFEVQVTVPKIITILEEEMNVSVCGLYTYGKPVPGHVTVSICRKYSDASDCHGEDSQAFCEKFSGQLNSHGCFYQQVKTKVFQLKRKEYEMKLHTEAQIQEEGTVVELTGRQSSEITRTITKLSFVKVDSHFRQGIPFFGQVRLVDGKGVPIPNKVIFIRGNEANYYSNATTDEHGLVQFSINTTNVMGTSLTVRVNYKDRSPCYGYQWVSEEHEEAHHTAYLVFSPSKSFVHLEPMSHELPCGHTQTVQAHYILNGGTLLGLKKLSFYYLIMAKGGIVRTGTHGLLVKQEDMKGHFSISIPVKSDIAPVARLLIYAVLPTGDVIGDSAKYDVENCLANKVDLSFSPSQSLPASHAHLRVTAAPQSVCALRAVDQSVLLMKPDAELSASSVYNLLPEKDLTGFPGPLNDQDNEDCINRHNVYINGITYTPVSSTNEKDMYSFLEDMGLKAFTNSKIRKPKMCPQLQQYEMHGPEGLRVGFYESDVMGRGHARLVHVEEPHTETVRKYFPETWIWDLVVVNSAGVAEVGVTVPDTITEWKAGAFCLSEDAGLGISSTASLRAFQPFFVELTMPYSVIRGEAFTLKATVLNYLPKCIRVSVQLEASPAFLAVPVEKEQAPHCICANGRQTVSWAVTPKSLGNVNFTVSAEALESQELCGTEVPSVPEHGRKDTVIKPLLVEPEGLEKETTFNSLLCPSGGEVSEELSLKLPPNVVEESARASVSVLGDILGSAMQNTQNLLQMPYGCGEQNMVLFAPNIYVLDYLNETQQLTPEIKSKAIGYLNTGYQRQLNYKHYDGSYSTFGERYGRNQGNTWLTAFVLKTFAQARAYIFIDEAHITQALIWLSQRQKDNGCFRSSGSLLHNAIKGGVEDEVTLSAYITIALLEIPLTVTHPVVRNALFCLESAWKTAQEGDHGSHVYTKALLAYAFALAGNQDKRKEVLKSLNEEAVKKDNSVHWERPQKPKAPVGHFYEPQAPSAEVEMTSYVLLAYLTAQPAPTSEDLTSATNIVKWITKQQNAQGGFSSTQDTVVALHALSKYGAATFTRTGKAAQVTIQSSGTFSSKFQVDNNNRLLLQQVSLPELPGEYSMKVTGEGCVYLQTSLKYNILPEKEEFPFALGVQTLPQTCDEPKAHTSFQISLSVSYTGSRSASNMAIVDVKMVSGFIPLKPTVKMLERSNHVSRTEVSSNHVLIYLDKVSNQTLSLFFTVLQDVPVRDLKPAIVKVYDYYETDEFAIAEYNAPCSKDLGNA

[1] = target: T2, A2ML1 (α2-macroglobulin-like protein 1) (Homo sapiens, UniProt A8K2U0); test: as above; assay type: biochemical; conditions: covalent ester at thiol ester Gln-973; A2ML1 activated by chymotrypsin; 200 mM glycerol, HBS pH 7.4, 37 °C
T2 construct: full-length recombinant, secreted by HEK293 Freestyle cells, no tag mentioned, purified by Zn IMAC, anion exchange and size exclusion; monomer; bait region cleaved by chymotrypsin in the assay
T2 sequence (A8K2U0 18-1454): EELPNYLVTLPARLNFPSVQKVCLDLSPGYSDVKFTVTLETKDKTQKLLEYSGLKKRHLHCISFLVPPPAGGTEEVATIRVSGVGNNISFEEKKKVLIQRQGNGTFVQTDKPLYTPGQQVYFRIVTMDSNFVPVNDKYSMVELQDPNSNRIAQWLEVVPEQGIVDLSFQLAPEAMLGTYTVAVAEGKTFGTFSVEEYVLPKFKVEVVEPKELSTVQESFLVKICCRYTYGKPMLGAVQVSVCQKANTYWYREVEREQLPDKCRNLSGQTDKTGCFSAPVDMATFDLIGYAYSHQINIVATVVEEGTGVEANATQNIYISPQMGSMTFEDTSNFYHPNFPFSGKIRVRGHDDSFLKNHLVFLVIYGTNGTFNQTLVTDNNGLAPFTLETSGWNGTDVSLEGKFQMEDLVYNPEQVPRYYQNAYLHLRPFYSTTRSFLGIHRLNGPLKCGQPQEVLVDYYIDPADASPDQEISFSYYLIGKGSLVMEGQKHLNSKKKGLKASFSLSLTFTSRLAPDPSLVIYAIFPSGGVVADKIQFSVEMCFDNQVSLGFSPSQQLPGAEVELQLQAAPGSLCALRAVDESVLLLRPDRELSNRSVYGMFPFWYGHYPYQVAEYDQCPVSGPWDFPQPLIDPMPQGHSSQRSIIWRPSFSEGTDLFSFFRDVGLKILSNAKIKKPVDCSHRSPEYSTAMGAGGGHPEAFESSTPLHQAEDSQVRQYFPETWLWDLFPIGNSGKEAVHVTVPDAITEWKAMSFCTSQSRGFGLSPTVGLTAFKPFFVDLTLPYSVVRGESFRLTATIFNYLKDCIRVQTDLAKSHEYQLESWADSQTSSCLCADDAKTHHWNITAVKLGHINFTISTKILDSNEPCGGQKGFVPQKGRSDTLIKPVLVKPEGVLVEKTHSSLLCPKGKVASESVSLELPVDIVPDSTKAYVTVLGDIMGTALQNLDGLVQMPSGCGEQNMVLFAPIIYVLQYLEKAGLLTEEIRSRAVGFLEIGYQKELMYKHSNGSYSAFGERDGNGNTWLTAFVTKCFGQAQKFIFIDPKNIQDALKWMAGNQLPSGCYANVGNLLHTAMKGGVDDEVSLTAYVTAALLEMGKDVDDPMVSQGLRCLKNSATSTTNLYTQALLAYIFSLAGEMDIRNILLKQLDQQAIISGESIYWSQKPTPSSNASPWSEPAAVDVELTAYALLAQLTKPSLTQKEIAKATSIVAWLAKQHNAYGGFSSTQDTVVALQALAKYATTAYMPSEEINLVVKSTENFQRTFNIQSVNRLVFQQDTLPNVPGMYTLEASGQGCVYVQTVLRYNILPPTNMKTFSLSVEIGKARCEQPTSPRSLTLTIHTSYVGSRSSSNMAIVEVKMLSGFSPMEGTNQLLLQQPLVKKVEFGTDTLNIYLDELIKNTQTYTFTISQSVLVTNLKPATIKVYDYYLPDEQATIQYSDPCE

OCC(O)CO [glycerol]
LC-MS/MS PRM of the pepsin-digested thiol ester peptide conjugate (A2M (α2-macroglobulin)): reaction products between the thiol ester and glycerol was detected for A2M N1088H | LC-MS/MS PRM of the pepsin-digested thiol ester peptide conjugate [1]: the reaction product with the hydroxyl substrate glycerol was only detected for WT A2ML1

From publication PMC7864068, “α2-Macroglobulin-like protein 1 can conjugate and inhibit proteases through their hydroxyl groups, because of an enhanced reactivity of its thiol ester” (The Journal of Biological Chemistry, 2021)
